The record followed here is patent publication US11028136B2, “Tumor antigen peptide” (Sapporo Medical University, priority 2014, dated 2021).

Holding throughout (format): cell-based
For assay [1], the system named is CaSki cell line. Briefly: Cell proliferation of siRNA-transfected cells. The conditions noted are these: FIG. 14-1(b), 14-2. Here is the method: (§1) MS751 and CaSki were each transfected with siRNAs for BORIS that had been designed to have the sequences shown in the table below in accordance with the protocol described in the Instructions by the manufacturer for the Lipofectamine RNAiMAX used. Cells were analyzed 48 hours after transfection. Trilencer-27 Universal Scrambled Negative Control siRNA (SR30004, Origene) was used as a negative control.

In assay [2] the test system is CaSki cell line. Briefly: Stemness gene expression of siRNA-transfected cells. The conditions noted are these: FIG. 15. Here is the method:
as §1

In the next assay the test system is CaSki. Briefly: Sphere formation capability of siRNA-transfected cells. Particulars: FIG. 16-1(a). The protocol:
(§2) Sphere formation has been reported as being one of the indicators of cancer stem cell markers in cervical cancer. Therefore, a spheroid formation assay using a low adherent cell culture plate was carried out. Cervical cancer cell lines (CaSki, TCS, MS751, SKG-IIIb, ME-180, and SiHa) were cultured using a multi well plate having an ultra low adherent surface (Ultra Low Attachment 6-well plate, Corning). Adherent cultured cells were peeled off with a solution containing 0.25% trypsin in 2 mM EDTA, and were plated on each well at 10^3 cells/well. As a medium, one prepared by adding to a serum-free DMEM/F-12 medium 20 ng/mL of h-EGF (acquired from R&D systems), 10 ng/mL of b-FGF (acquired from R&D systems), 1% penicillin/streptomycin (acquired from GIBCO), 4 μg/mL of heparin, and a final concentration of 1% of N2 supplement (acquired from WAKO) was used, culturing was carried out under normal culturing conditions for 7 days or 14 days, and formation of spheroids of 100 μm or greater was confirmed for all of the cell lines (FIG. 1). […]
(§3) MS751 and CaSki were each transfected with siRNAs for BORIS that had been designed to have the sequences shown in the table below in accordance with the protocol described in the Instructions by the manufacturer for the Lipofectamine RNAiMAX used. Cells were analyzed 48 hours after transfection. […]

A further assay relates to MS751. Described as above. Particulars: FIG. 16-1(b). The protocol: as §2, §3

On to “rGrGrArArArUrArCrCrArCrGrArUrGrCrArArArUrUrUrCAT [siRNA2]”, for which the Cell proliferation entry in the assay with CaSki cell line [1] is recorded as “slightly suppressed”. Also, in the assay on CaSki cell line [2], the Stemness gene suppression entry is “did not occur at all”. In addition, the Sphere formation capability result with CaSki and in the assay with MS751 was “markedly suppressed” each time.
